# Results as given in PubChem BioAssay AID493003 (Sanford-Burnham Center for Chemical Genomics, 2010).
# The source made the active and inactive calls. The rule behind the calls is not given here.
# System: S. cerevisiae tim10-1 mutant growth, luminescence
# Assay: tim10-1 yeast growth inhibition potency – luminescence, S. cerevisiae, uHTS hits, dose response (AID 493003);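 note: yeast growth measured after about 22 hours at 25 °C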
row,SMILES,IC50
1,CN1CCN(c2cc(N3CCc4ccccc4C3)c(F)cc2[N+](=O)[O-])CC1,71.6 µM
2,N#Cc1c(N)nc(SCC(=O)C23CC4CC(CC(C4)C2)C3)c(C#N)c1-c1ccc(Cl)cc1,41.6 µM
3,CN(CCCC(=O)O)c1ccc(N=Nc2ccc([N+](=O)[O-])cc2)cc1,19.5 µM
4,Cc1ccc(NC(=S)NCc2ccc3[nH]c4c(c3c2)CCCC4)cc1,22.1 µM
5,O=C(/C=C/c1c[nH]c2ccccc12)c1ccccc1,78.2 µM
6,CC1=CC(=O)C=C(C)C1=NOC(=O)/C=C\c1ccccc1,42.4 µM
7,Cc1ccc(-c2csc3ncnc(Nc4ccc(N5CCOCC5)cc4)c23)cc1,53.4 µM
8,CCn1c(SCc2c(F)cccc2Cl)nnc1-c1ccco1,24.3 µM
9,CCc1cccc(NC(=O)CS(=O)Cc2nc(-c3ccc(C)cc3)oc2C)c1 (stereo not given),27 µM
10,Cc1[nH]c2ccccc2c1C(O)CN1CCN(c2cccc(C(F)(F)F)c2)CC1 (stereo not given),21.3 µM
11,CCOC(=O)c1ccc(NC(=O)c2cccc3c2C(=O)N(CC2CCCO2)C3)cc1 (stereo not given),55.1 µM
12,COc1cc(C(=O)O/N=C(\N)Cc2ccc([N+](=O)[O-])cc2)cc(OC)c1OC,22.3 µM
13,Cc1ccc(C(=O)O/N=C(\N)c2ccccn2)c(C)c1,17 µM
14,Cc1nc2c(-c3ccccc3)cnn2c(N)c1-c1ccccc1,24 µM
15,CCOc1ccccc1N1CCN(C(=O)Nc2ccc(F)c(Cl)c2)CC1,60.6 µM
16,COc1ccccc1C(CCNCc1ccccc1)c1ccc(OC(C)C)cc1 (stereo not given),19.9 µM
17,N/C(=N\OC(=O)CCCOc1ccc(Cl)cc1Cl)c1ccccn1,34 µM
18,CCOc1cc(-c2c(C#N)c(N)nc3c2CCCC3C)ccc1O (stereo not given),43.8 µM
19,CCCCc1ccc(NC(=S)Nc2ccc(Nc3ccc(OC)cc3)cc2)cc1,12.9 µM
20,O=C(CSCC(=O)OCn1nnc2ccccc2c1=O)Nc1ccc(Cl)cc1,20.2 µM
21,O=C(CS(=O)(=O)c1ccccc1)Nc1nc(-c2ccccc2)cs1,24.2 µM
22,Cc1ccc(OCCOc2cccc(Br)c2)c([N+](=O)[O-])n1,69.2 µM
23,Cc1cc(C)c(CSc2ncc(-c3ccc([N+](=O)[O-])cc3)[nH]2)c(C)c1,12.9 µM

row,SMILES,IC50
1,Oc1ccccc1-c1nc(NCc2cccnc2)c2ccccc2n1,60.5 µM
2,CC(C)(C)C(=O)NCCN1C(=O)S/C(=C\c2ccc([N+](=O)[O-])cc2)C1=O,32.3 µM
3,Cn1c(N2CCOCC2)nc(-c2ccccc2)c1-c1ccccc1,22.9 µM
4,Cc1cc([N+](=O)[O-])ccc1-c1ccc(C2Nc3ccccc3C(=O)N2O)o1 (stereo not given),12.4 µM
5,O=C(COC(=O)c1ccccc1C(=O)c1ccccc1)Nc1ccc(SC(F)F)cc1,72.9 µM
6,O=S(=O)(Nc1ccc(N=Nc2ccccc2)cc1)c1ccccc1,35.5 µM
7,COc1ccc2sc(-c3ccc(S(C)(=O)=O)cc3)c(C#CCO)c2c1,24.2 µM
8,Cc1cc(Nc2nc(Cl)c(Cl)cc2Cl)n(-c2ccccc2)n1,27.1 µM
9,O=C(Nc1cccnc1)c1cn(-c2ccccc2)nc1-c1cccs1,13.2 µM
10,COc1ccc(/C(C)=N/NC(=S)NCCc2ccccc2)cc1,5.69 µM
11,O=C(Nc1ccccc1Br)C1CC(=O)N(c2ccc3c4c(cccc24)CC3)C1 (stereo not given),77.7 µM
12,COc1cccc(N2[C@@H](CC(C)=O)c3ccc(/C=C/C(C)=O)cc3S2(=O)=O)c1,18.3 µM
13,O=C(Nc1cccc(C(F)(F)F)c1)N1CCC(c2nc(-c3ccc(F)cc3)no2)CC1,74.7 µM
14,Cc1[nH]c(-c2ccc(F)cc2)cc1C(=O)N1CCN(c2ccccc2F)CC1,35.5 µM
15,Cc1ccc(C(=O)NC(=S)Nc2ccccc2C)cc1,44.5 µM
16,CCN1C(=O)C(CC(=O)Nc2ccc(OC)cc2)N(CCc2ccc(OC)cc2)C1=S (stereo not given),32.2 µM
17,CCOc1ccc(-n2cc(-c3ccccc3)c3c(=O)[nH]cnc32)cc1,14.9 µM
18,O=S(=O)(NCCNc1ncc(C(F)(F)F)cc1Cl)C(F)(F)F,26.6 µM
19,COc1ccc(NC(C)(C)c2nnnn2-c2c(C)cccc2C)cc1,36.1 µM
20,N#C/C(=C/c1ccc(N2CCCCCC2)o1)c1cccc(F)c1,14.9 µM
21,CN1CCCN(C(c2ccccc2)c2ccc(Cl)cc2)CC1 (stereo not given),30.9 µM
22,O=C(NNC(=S)Nc1cccc(C(F)(F)F)c1)c1cccc(Cl)c1,10 µM
23,Cc1cc(C)cc(OCCCOc2cccc3cccnc23)c1,32.4 µM

row,SMILES,IC50
1,O=c1c2ccccc2oc2ccc(C#CC3(O)CCCCC3)cc12,23.3 µM
2,C/C(=N\OC(=O)NC(C)C)c1sc(-c2ccc(Cl)cc2)nc1C,33.5 µM
3,COc1ccc(C(=O)Nc2ccc(S(=O)(=O)N3CCCCC3)cc2)cc1OC,27.9 µM
4,CN(C)c1ccc(-[n+]2c(-c3ccccc3)cc(-c3ccccc3)cc2-c2ccccc2)cc1,23.7 µM
5,C=CCn1c(N)c(C(=O)Nc2cccc(C)c2)c2nc3ccccc3nc21,17 µM
6,COc1cc(OC)c(C(=O)O/N=C(\N)c2cccc(C)c2)cc1OC,17.7 µM
7,C=Cc1ncc(OC)c2c1[nH]c1ccccc12,25 µM
8,COc1ccc(S(=O)(=O)Nc2ccc(O)c(Sc3nc4ccccc4s3)c2)cc1,34.1 µM
9,Cc1nc2ccccn2c1P(=S)(N1CCCCC1)N1CCCCC1,39.7 µM
10,Fc1ccccc1CNc1cc(Cl)cc(Cl)c1,26 µM
11,CCOc1ccc(-c2n[nH]c(C)c2Oc2ccc(OC)cc2)c(O)c1,16.4 µM
12,Cc1cccc(/C(N)=N/OC(=O)COc2ccc(Cl)cc2)c1,48.4 µM
13,N/C(=N\OC(=O)CCCc1ccccc1)c1ccc([N+](=O)[O-])cc1,28.5 µM
14,Nc1ccccc1Sc1ccc(C(F)(F)F)cc1[N+](=O)[O-],28.9 µM
15,Cc1ccc(-n2cc(-c3ccc([N+](=O)[O-])cc3)[nH]c2=S)c(C)c1,87.4 µM
16,O=C(Cc1ccccc1)N/N=C/c1ccc2cccc(O)c2n1,> 100 µM (inactive)
17,Cc1cc(Br)c(Cl)cc1NC(=O)CN1C(=O)C2C3CC(c4ccccc4)C(C3)C2C1=O (stereo not given),27.1 µM
18,Cc1ccc(NC(=S)NNC(=O)CSc2nc3ccccc3c(=O)n2-c2ccc(C)cc2)cc1,44.9 µM
19,Oc1ccc(-c2nccc(-c3ccc(Cl)cc3)n2)cc1,24.6 µM
20,Nc1nc(N)c(C=Nc2ccc(Br)cc2)c(Nc2ccc(Br)cc2)n1,16.8 µM
21,O=C(Nc1cc(Sc2ccccn2)cc([N+](=O)[O-])c1)c1cccc(F)c1,88 µM
22,Cc1ccc(F)c(NC(=O)c2c(-c3ccccc3)noc2C)c1,58.6 µM
23,N/C(Cc1cccs1)=N\OC(=O)COc1ccc(Cl)cc1Cl,24.7 µM

row,SMILES,IC50
1,Oc1ccccc1-c1csc(-c2ccccc2)n1,26.3 µM
2,CCNC(=S)N/N=C/c1ccc(-c2ccccc2)o1,34.8 µM
3,O=C(Nc1ccc(N2CCN(C(=O)c3ccccc3F)CC2)cc1)c1cncc(Br)c1,41.3 µM
4,N#C/C(=C\c1ccccc1)C(=O)Nc1cc(S(=O)(=O)N2CCOCC2)ccc1N1CCCC1,31.3 µM
5,COc1cc(N=c2ssnc2Cl)c(OC)cc1Cl,13 µM
6,COc1cccc(C(=O)CSc2nnnn2C2CCCCC2)c1,28.2 µM
7,Cc1cccc2nc(COc3ccc(Cl)c4cccnc34)cn12,44.7 µM
8,CCCCN1/C(=C/c2ccc3ccccc3[n+]2CC)Sc2ccccc21,19.2 µM
9,CCOC(=O)c1ccc(N2C(=O)CC(N3CCC(C(=O)OCC)CC3)C2=O)cc1 (stereo not given),15.1 µM
10,C/C(=N\O)c1cc(Cl)cc(Cl)c1O,15 µM
11,COc1ccc(N2C(=O)CC(Sc3nnc(-c4ccccc4)o3)C2=O)cc1 (stereo not given),47.2 µM
12,COc1ccc2cc3cc(C(=O)Nc4ccccc4N4CCN(C)CC4)oc3nc2c1,17.5 µM
13,CCCc1cc(-c2n[nH]c(=S)n2-c2cccc(C)c2)cs1,37.5 µM
14,O=C1C2C3C=CC(CO)(O3)C2C(=O)N1c1ccccc1-c1ccccc1 (stereo not given),4.92 µM
15,COc1ccc(Sc2cnn(-c3ccccc3)c(=O)c2Cl)cc1,35.6 µM
16,COc1ccc(C(=O)O/N=C(\N)c2ccc(Cl)cc2)cc1,13.3 µM
17,CN(C)CCCN(C(=O)c1cc2cc([N+](=O)[O-])ccc2s1)c1nc2cc3c(cc2s1)OCCO3,13.7 µM
18,COC(=O)c1ccccc1NC(=S)NC(=O)C1CCCCC1,42.5 µM
19,COc1ccc(C(=O)/C=C/c2ccccc2)c(O)c1,34.2 µM
20,Cc1cc(C)cc(NC(=O)c2ccc(Cn3nc(C)c(Cl)c3C)o2)c1,68.7 µM
21,O=C(/C=C\c1ccc(-c2ccccc2)o1)c1ccccc1,5.47 µM
22,Cc1ccc(NC(=O)c2ccc(Cl)c(N3C(=O)C=CC3=O)c2)cc1,8.63 µM
23,C/C=C(/C(=C/C)c1ccc(O)cc1)c1ccc(O)cc1,25.6 µM

row,SMILES,IC50
1,CCOc1ccccc1N1C(=O)CC(Sc2n[nH]c(-c3ccccc3)n2)C1=O (stereo not given),10.6 µM
2,Cc1ccc(CNC(=O)c2ccc(Cn3nc(C)c(Cl)c3C)o2)cc1,10.3 µM
3,CCCCCCCCCCOC(=O)Cn1c(COc2ccccc2OC)[n+](C)c2ccccc21,10.9 µM
4,OC(COc1ccccc1)Cn1c2ccccc2c2ccccc21 (stereo not given),29.4 µM
5,COc1cccc2sc(Nc3nc(-c4ccccn4)cs3)nc12,20.2 µM
6,COC(=O)c1ccc(NC(=O)CN2CCN(S(=O)(=O)c3ccc(Br)cc3)CC2)cc1,61.5 µM
7,CN1CCN(c2ccccc2NC(=O)c2ccc(-c3cccc(Cl)c3)o2)CC1,21.4 µM
8,Nc1nc(-c2ccc(Br)s2)c(Br)s1,23.5 µM
9,O=[N+]([O-])/C(C(Cl)=C(Cl)Cl)=C(/Sc1ccccc1)N1CCCCC1,38.7 µM
10,COc1ccc(Cn2c(-c3ccc(Br)cc3)c[n+]3ccccc23)cc1,37.8 µM
11,CNC(=O)c1nnsc1S(=O)(=O)c1ccc(Cl)cc1,16.4 µM
12,Cc1cccc(/C=N/n2c(COc3ccccc3)n[nH]c2=S)c1,36.6 µM
13,O=[N+]([O-])c1cc(Cl)ccc1N1CCN(c2ccccc2O)CC1,32.3 µM
14,C=C(C)COc1ccc(-c2[nH]ncc2Oc2ccccc2OC)c(O)c1,> 100 µM (inactive)
15,CCCc1cc(-c2nc(-c3ccc(C)cc3)cs2)ccn1,49.7 µM
16,CCOC(=O)c1cc(-c2cccs2)nc2c1c(C)nn2-c1ccccn1,11 µM
17,CC(C)(C)c1ccc(C(=O)c2cn[nH]c2-c2ccccc2O)cc1,52 µM
18,CCN1C(=O)/C(=C/c2c(C)nn(C)c2C)SC1=S,24.4 µM
19,OCCN1CCN(C2Cc3cc(Cl)ccc3Sc3ccc(Cl)cc32)CC1 (stereo not given) (tested in a mixture with another compound),20.4 µM
20,O=C(Nc1nccs1)c1ccc(Br)c(S(=O)(=O)N2CCOCC2)c1,27.7 µM
21,Cc1csc(NC(=O)c2nc(-c3ccccc3)n(-c3ccccc3)n2)n1,31.7 µM
22,COc1cc2c(cc1OC)CN(c1ccc([N+](=O)[O-])cc1Cl)CC2,27.6 µM
23,Nc1cc2c(cc1C(=O)c1ccc(Cl)cc1)OCCO2,38.2 µM
